# Test results from PMC3355318 (Toxicological Sciences, 2012).
# How the values were obtained:
# Huh-7 cells = conditions: ref Lin et al., 2012; cited from earlier work
# HepG2 cells = conditions: ref Wang et al., 2002; cited from earlier work
# [1] = system: 3D spheroids constructed from immortal human C3A hepatocytes (HepG2/C3A)
# [2] = ref Schulz and Schmoldt, 2003; cited from earlier work
Compound,LD50 converted from published LC50 (Huh-7 cells) [mg/mg],LD50 converted from published LC50 (HepG2 cells) [mg/mg],cellular ATP production at low compound concentrations [1],LD50 ([1]; human),Terminal elimination half-life [2] [h]
"CC(=O)Nc1ccc(O)cc1 [APAP, Acetaminophen]",4.13,82.32,–,–,–
"CN(C)C(=N)N=C(N)N [Metformin, metformin]",–,–,slightly increased,2.76 mg compound/mg cellular protein,–
"[H]/N=C(/N)N/C(=N/[H])NCCc1ccccc1 [Phenformin, phenformin]",–,–,not seen,–,–
"CCCC(CCC)C(=O)O [Valproic acid, valproic acid]",–,–,not seen,–,15
